# Experimental data reported in US6906035B2, “Antimicrobial cationic peptides” (priority 1995, dated 2005).
# Ends that are not written are not given here.
# Legend:
# P. aeruginosa = settings: for MIC P. aeruginosa (H187): Table 6; for MIC H103: MBI 29 and MBI21 derivatives; for MIC P. aeruginosa (H187) / MIC: P. aeruginosa (H187); for MIC: Table 1a
# Protocol: (§1) FICs are performed by checkerboard titrations of peptides in one dimension of a microtiter plate, and of antibiotics in the other dimension, for example. The FIC is calculated by looking at the impact of one antibiotic on the MIC of the other and vice versa. […] Preferably, an FIC of less than 0.5 is obtained for synergism. As used herein, FIC can be determined as follows: [formula]
# (§2) Briefly, cells were grown overnight at 37° C. in LB-S (Luria broth without any salt supplement) and diluted one in 10,000 in the same medium to give concentrations of about 10^4 to 10^5 CFU/ml. The broth dilutions were set up in a 96 well microtiter plate by putting 200 μl of LB-S containing the initial concentration of antibiotic or compound in column 1 and 100 μl of the same medium in columns 2-12. The compounds were diluted by taking 100 μl of broth from column 1 and mixing it with column 2, resulting in a one in two dilution. This was continued to column 10. Finally, 10 μl of bacteria were pipetted into columns 1-11, and the plates incubated overnight at 37° C. The next day the plates were scored for growth in the wells, and the MIC determined.
# E. coli = assay: MIC, broth dilution in LB-S; type: cell-based; settings: for MIC E. coli (UB 1005): Table 6; for MIC E. coli 0111:B4: MBI 29 and MBI21 derivatives; for MIC: E. coli (UB1005), Table 1a
# Protocol: (§3) The biological activity of the peptides can be determined by standard methods known to those of skill in the art, such as “minimal inhibitory concentration (MIC)” assay described in the present examples, whereby the lowest concentration at which no change in OD is observed for a given period of time is recorded as MIC. Alternatively, “fractional inhibitory concentration (FIC)” is also useful for determination of synergy between the peptides of the invention, or the peptides in combination with known antibiotics. FICs are performed by checkerboard titrations of peptides in one dimension of a microtiter plate, and of antibiotics in the other dimension, for example. The FIC is calculated by looking at the impact of one antibiotic on the MIC of the other and vice versa. […] Preferably, an FIC of less than 0.5 is obtained for synergism. As used herein, FIC can be determined as follows: [formula]
# as §2
# Red Blood Cells = assay: Red blood cell lysis; type: cell-based; settings: concentration lysing Red Blood Cells
# S. epidermis = settings: for MIC S. epi 0017: MBI 29 and MBI21 derivatives; for MIC: S. epidermis, Table 1a
# Protocol: as §1, §2
# B. Subtilis = assay: MIC, broth dilution in LB-S; type: cell-based; settings: MBI 29 and MBI21 derivatives
# Protocol: as §3, §2
# E. faecalis = assay: MIC, broth dilution in LB-S; type: cell-based; settings: MBI 29 and MBI21 derivatives
# Protocol: as §3, §2
# S. aureus = assay: MIC, broth dilution in LB-S; type: cell-based; settings: for MIC K147 / MIC SAP: MBI 29 and MBI21 derivatives; for MIC: Table 1a
# Protocol: as §3, §2
# C610 = assay: MIC, broth dilution in LB-S; type: cell-based, S. typhimurium; settings: MBI 29 and MBI21 derivatives
# Protocol: as §3, §2
# Candida albicans = assay: MIC, broth dilution in LB-S; type: cell-based; settings: Candida alibicans (CAN105); Table 1a
# Protocol: as §1, §2
Molecule,MIC P. aeruginosa (H187) (P. aeruginosa) [µg/mL],MIC E. coli (UB 1005) (E. coli) [µg/mL],RBC Lysis (Red Blood Cells) [µg/mL],MIC H103 (P. aeruginosa) [µg/mL],MIC S. epi 0017 (S. epidermis) [µg/mL],MIC B. Subtilis (B. Subtilis) [µg/mL],MIC E. coli 0111:B4 (E. coli) [µg/mL],MIC E. faecalis (E. faecalis) [µg/mL],MIC K147 (S. aureus) [µg/mL],MIC SAP (S. aureus) [µg/mL],MIC C610 (C610) [µg/mL],MIC (P. aeruginosa),MIC (S. epidermis),MIC (E. coli),MIC (S. aureus; S. aureus (K 147)),MIC (S. aureus; S. aureus (SAP0017)),MIC (Candida albicans)
CC[C@H](C)[C@H](NC(=O)[C@H](CC(C)C)NC(=O)[C@H](C)NC(=O)[C@@H]1CCCN1C(=O)[C@H](CC(C)C)NC(=O)CNC(=O)[C@@H](NC(=O)[C@@H](NC(=O)[C@H](CC(C)C)NC(=O)[C@@H](NC(=O)[C@H](CCCCN)NC(=O)[C@H](CCCCN)NC(=O)[C@@H](NC(=O)[C@H](C)NC(=O)[C@@H](NC(=O)[C@@H](NC(=O)[C@H](CC(C)C)NC(=O)[C@H](CCCCN)NC(=O)[C@H](CCCCN)NC(=O)[C@@H](NC(=O)[C@H](Cc1ccccc1)NC(=O)[C@H](CCC(=O)O)NC(=O)[C@H](CCCCN)NC(=O)[C@H](Cc1c[nH]c2ccccc12)NC(=O)[C@@H](N)CCCCN)[C@@H](C)CC)[C@@H](C)O)[C@@H](C)O)C(C)C)C(C)C)[C@@H](C)O)[C@@H](C)O)C(=O)N[C@@H](CO)C(=O)O [compound 492],4.8,2.4,>55,,,,,,,,,,,,,,
KKSFFKKLTSVASSVLS [MBI21A14],,,,>128,>128,>128,>128,>128,>128,>128,128,,,,,,
KKWWRRVLSGLKTAGPAIQSVLNK [MBI21A1],,,,64,128,>128,16,>128,>128,>128,16,,,,,,
KWKKFIKELQKVLAPGGLLSNIVTSL [compound 493],10,5,>55,,,,,,,,,,,,,,
"KWKLFKKIGIGAVLKVLTTGLPALIS [CEME, reference compound]",,,,,,,,,,,,8 µg/mL,16 µg/mL,5 µg/mL,32 µg/mL,24 µg/mL,64 µg/mL
KWKLFKKKGTGAVLTVLTTGLPALIS [MBI29A3],,,,16,16,16,8,>128,32,32,8,,,,,,
KWKSFIKKLTSVLKKVVTTALPALIS [MBI29A1],,,,16,16,16,4,64,16,16,8,,,,,,
KWKSFIKNLEKVLKKGPILANLVSIV [compound 491],8,2,>55,,,,,,,,,,,,,,
KWKSFIKNLEKVLKPGGLLSNIVTSL [compound 490],8,1,>55,,,,,,,,,,,,,,
KWKSFIKNLTKVLKKVVTTALPALIS [MBI29A2],,,,16,16,8,8,64,16,8,8,,,,,,
KWWRRALQGLKTAGPAIQSVLNK [MBI21A2],,,,128,>128,>128,32,>128,>128,>128,16,,,,,,
MA-20: 20 carboxy terminal amino acids of melittin (MA) [reference compound],,,,,,,,,,,,≧64,≧64,≧64,≧64,≧64,≧64
